# Test results taken from patent US20090170768A1, “WATER-SOLUBLE CARBON NANOTUBE COMPOSITIONS FOR DRUG DELIVERY AND MEDICINAL APPLICATIONS” (William Marsh Rice University, priority 2007, published 2009).
# Like-named read-outs stand apart in the source and are kept apart here.
# Assays:
# [1] = system: Tu167 cells; assay: MTT assay, in vitro cell killing in Tu167 cells; assay type: cell-based
# Description: (§1) For the analyses, the analyses presented in FIGS. 1 and 2, the paclitaxel was dissolved in either acidic MeOH (FIG. 1) or neutral MeOH (FIG. 2) prior to association with the PEG-functionalized SWNTs. The MeOH was removed from the compositions by evaporation following sequestration of the paclitaxel by the PEG-functionalized SWNT matrix. MeOH removal was performed prior to MTT analysis. […] The control paclitaxel was dissolved in a cremaphor vehicle.
# [2] = Paclitaxel solubilization in water with or without PEG-functionalized carbon nanotubes
# [3] = system: UMSCC1 cells; assay: MTT assay, in vitro cell killing in UMSCC1 cells; assay type: cell-based; details: Homo sapiens
# Description: as §1
# For the analysis presented in FIG. 4, the paclitaxel was dissolved in EtOH prior to association with the PEG-functionalized SWNTs. The EtOH was removed from the compositions by evaporation following sequestration of the paclitaxel by the PEG-functionalized SWNT matrix. EtOH removal was performed prior to MTT analysis.
# [4] = system: cells; assay: Intracellular delivery of FITC (cell fluorescence); assay type: cell-based; details: provided to cells
# Text: In certain embodiments, the compositions provide intracellular delivery of the at least one type of payload molecule. The intracellular delivery may occur in vitro or in vivo. […] Thus, the compositions provide intracellular delivery of the at least one type of payload molecule.
precipitation from solution ([2]; 1 mg paclitaxel in 70 μL ethanol added to 1 mL of a solution containing PEG-functionalized carbon nanotubes),precipitation from solution ([2]; 1 mg paclitaxel in 70 μL ethanol added to 1 mL of water),Compound,"IC50 ([1]; Tu167 cells, MTT, vehicle per row (cremaphor or aqueous), R^2 in parentheses, read-out: Tu167 IC50 (nm): R^2) [nM]","IC50 ([1]; dissolved in cremaphor vehicle (FIG. 3), read-out: IC50 in Tu167 cells) [nM]","IC50 ([3]; UMSCC1, cremaphor vehicle (FIG. 5), read-out: IC50 in UMSCC1 cells) [nM]","IC50 ([3]; UMSCC1 cells, MTT, vehicle per row (cremaphor or aqueous), R^2 in parentheses, read-out: UMSCCI IC50 (nm): R^2) [nM]",intracellular fluorescence [4]
no paclitaxel precipitates from solution,immediately precipitates from solution,"CC(=O)O[C@H]1C(=O)[C@@]2(C)[C@H]([C@H](OC(=O)c3ccccc3)[C@]3(O)C[C@H](OC(=O)[C@H](O)[C@@H](NC(=O)c4ccccc4)c4ccccc4)C(C)=C1C3(C)C)[C@]1(OC(C)=O)CO[C@@H]1C[C@@H]2O [PACLITAXEL, paclitaxel]",0.62,0.62,0.26,0.26,
,,fluorescein isothiocyanate [FITC],,,,,no intracellular fluorescence was observed
